One block for each molecule: values may come before it.
Legend:
human sEH [1] = target: T1, human sEH (Homo sapiens, UniProt P34913); assay: Human soluble EH activity in lysates of Sf21 cells infected with recombinant AcNPV, TSO and CSO as substrates; type: biochemical; conditions: for inhibition at 62.5 µM: preincubation of lysates from human sEH expressing cells with inhibitor (62.5 μM, Table II), read-out: inhibition of the hydrolysis of TSO and CSO
T1 construct: made in house; host or cells: Spodoptera frugiperda Sf21 cells infected with recombinant AcNPV (AchsEH1)
T1 sequence (P34913 1-555): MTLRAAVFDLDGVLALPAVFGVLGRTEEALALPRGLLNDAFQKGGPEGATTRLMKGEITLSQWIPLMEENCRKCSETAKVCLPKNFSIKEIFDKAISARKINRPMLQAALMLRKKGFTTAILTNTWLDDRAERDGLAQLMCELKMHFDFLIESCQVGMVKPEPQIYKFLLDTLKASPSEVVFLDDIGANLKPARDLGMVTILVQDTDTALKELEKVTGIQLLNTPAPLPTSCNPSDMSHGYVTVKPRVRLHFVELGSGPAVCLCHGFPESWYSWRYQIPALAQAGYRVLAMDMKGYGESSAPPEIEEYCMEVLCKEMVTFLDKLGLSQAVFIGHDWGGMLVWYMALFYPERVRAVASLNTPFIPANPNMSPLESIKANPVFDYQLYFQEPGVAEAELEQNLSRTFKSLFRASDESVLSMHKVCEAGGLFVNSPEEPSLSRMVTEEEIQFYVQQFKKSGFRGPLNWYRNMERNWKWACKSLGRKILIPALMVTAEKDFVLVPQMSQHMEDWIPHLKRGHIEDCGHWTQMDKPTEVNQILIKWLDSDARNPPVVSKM
Text: To obtain recombinant baculovirus, Spodoptera frugiperda 21 (Sf21) insect cells are cotransfected with plasmid pAcUW21-hsEH plus linearized DNA (AcRP6-SC) of Autographa californica nuclear polyhedrosis virus (AcNPV). […] The resulting virus plaque is purified as described by O'Reilly, D. R., et al., in Baculovirus Expresssion Vectors. A Labortory Manual, p. […] Cultures of Sf21 cells are then infected with recombinant AcNPV containing the human sEH sequence or with control AcNPV. Uninfected cultures are also maintained. Cultures are maintained 4 to 5 days post infection before harvesting proteins. For extraction of proteins, cells are washed (three times in 90 mM NaHPO4 pH7.4) then lysed (in 90 mM NaHPO4 pH7.4, 1 mM EDTA, 1 mM phenylmethylsulfonyl fluoride) by 3 cycles of freeze thawing (dry ice ethanol and 37° C. H2 O baths).
A., and B. D. Hammock in Arch. […] Biochem. Biophys.

sEH = conditions: inhibits only very weakly other enzymes that catalyze hydrolysis or conjugation of epoxides; Mullin and Hammock 1982, Prestwich 1985; cited from earlier work
[2] = test system: sEH of various species (mouse, rabbit, primate); conditions: Dietze et al. 1991, 1993, read-out: I50; cited from earlier work
murine sEH = target: T2, murine sEH (Mus musculus, UniProt P34914); assay: Epoxide hydrolase activity (TSO partition assay) in extracts of COS-7 cells transfected with murine sEH expression vector; type: biochemical; conditions: psEH-pJ3omega transfected COS-7 cells + t-ENPG 1 mM final concentration
T2 construct: A primer pair to amplify the entire coding region is; expressed in transfected cells; host or cells: COS-7
T2 sequence (P34914 1-554): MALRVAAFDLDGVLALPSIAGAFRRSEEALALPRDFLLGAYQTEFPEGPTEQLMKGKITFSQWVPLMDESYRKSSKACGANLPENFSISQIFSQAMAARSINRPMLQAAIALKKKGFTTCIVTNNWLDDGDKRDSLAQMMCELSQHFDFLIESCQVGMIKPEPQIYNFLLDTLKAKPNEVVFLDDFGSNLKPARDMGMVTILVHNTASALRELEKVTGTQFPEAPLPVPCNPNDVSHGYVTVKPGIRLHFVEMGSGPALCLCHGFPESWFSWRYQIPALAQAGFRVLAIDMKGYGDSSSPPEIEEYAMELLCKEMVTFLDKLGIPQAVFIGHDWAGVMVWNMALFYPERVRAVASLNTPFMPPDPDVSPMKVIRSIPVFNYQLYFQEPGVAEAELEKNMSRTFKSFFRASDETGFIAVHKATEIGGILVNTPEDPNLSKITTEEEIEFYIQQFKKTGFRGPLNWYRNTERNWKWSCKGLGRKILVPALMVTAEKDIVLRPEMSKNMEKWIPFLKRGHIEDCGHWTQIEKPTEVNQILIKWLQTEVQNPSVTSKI
Protocol: (§1) To detect soluble epoxide hydrolase activity or to monitor its relative purity, one uses the partition assay of Wixtrom, R. N., and B. D. Hammock in Biochemical Pharmacoloyt and Toxicology (Zakim, D., and Vessey, D. A., Eds), Vol. 1, pp. 1-93. Wiley, New York ([…]) with [^3 H]-trans-stilbene oxide ([^3 H]TSO) as substrate, incorporated herein by reference. In brief this assay entails: coincubating the enzyme with radiolabled substrate that is much more soluble in organic than aqueous solutions. Next, the enzyme substrate is extracted with organic solvent such that the substrate partitions into the organic phase but the more polar and water-soluble product (a vicinal diol) partitions to the aqueous phase. An aliquot of the aqueous phase is then analyzed for concentration of product by quantification of radioactivity. The substrate [^3 H]TSO is prepare by the method described by Gill, S. S., et al., in Anal. Biochem., 131:273-282 (1993) incorporated herein by reference.
cos-7 cells are grown as a monolayer culture in Dulbecco's modified Eagle's medium (ICN) containing 10% fetal calf serum (ICN) plus penicillin G (100 U/ml) and streptomycin sulfate (100 ug/ml). Cell transfections are mediated by lipofectin (Gibco) according to standard protocol. Approximately 1×10^6 cells are transfected in 100 mm dishes with 5 ug of murine sEH-pJ3omega, 5 ug pJ3omega vector control or a mock transfection control containing lipofectin only (60 ul/plate). All transfections except the mock transfection control contain 2.5 ug of the beta-galactosidase plasmid, pSV-beta-Gal (Promega) can be used as an internal positive control. After 36 hours, cells are washed 5 times with PBS and collected by scraping into 1.5 ml centrifuge tubes. The cells are then pelleted (12 k×g, 4° C., 30 seconds), resuspended in 150 ul of lysis buffer (40 mM tris, pH 8.0, 150 mM NaCl, 0.2 mM PMSF, 1 mM EDTA) and lysed by 3 cycles of freezing and thawing. The cells are again centrifuged and the supernatant used for enzyme assays and protein determination. […]

[3] = test system: basal sEH activity of COS-7 cells; assay: Basal epoxide hydrolase activity (TSO) in extracts of vector-control or mock transfected COS-7 cells; type: biochemical, monkey
Protocol: as §1
cos-7 cells are grown as a monolayer culture in Dulbecco's modified Eagle's medium (ICN) containing 10% fetal calf serum (ICN) plus penicillin G (100 U/ml) and streptomycin sulfate (100 ug/ml). Cell transfections are mediated by lipofectin (Gibco) according to standard protocol. Approximately 1×10^6 cells are transfected in 100 mm dishes with 5 ug of murine sEH-pJ3omega, 5 ug pJ3omega vector control or a mock transfection control containing lipofectin only (60 ul/plate). All transfections except the mock transfection control contain 2.5 ug of the beta-galactosidase plasmid, pSV-beta-Gal (Promega) can be used as an internal positive control. After 36 hours, cells are washed 5 times with PBS and collected by scraping into 1.5 ml centrifuge tubes. The cells are then pelleted (12 k×g, 4° C., 30 seconds), resuspended in 150 ul of lysis buffer (40 mM tris, pH 8.0, 150 mM NaCl, 0.2 mM PMSF, 1 mM EDTA) and lysed by 3 cycles of freezing and thawing. The cells are again centrifuged and the supernatant used for enzyme assays and protein determination. Beta-galactosidase is assayed as described (Sambrook et al., 1989). sEH activity is assayed using TSO as described by the method of Wixtrom, R. N. and B. D. Hammock in Biochemical Pharmacology and Toxicology, (Zakim, D. and Vessey, D. A., ed.) 1:1-93 (1985).
The functional analysis of recombinant murine sEH expressed in COS-7 cells was performed following the methods described above. […] Transfected cells expressed approximately the same level of sEH activity as did mock transfected cells when 1 mM t-ENPG was included in the enzyme assay. […] The differences in specific activity among the experiments in Table I are most likely due to differences in cell density during transfections.
As well as detecting the transiently expressed sEH, the anti-rhesus-sEH antiserum also detected a protein that migrates identically with mouse sEH.

[4] = test system: monkey and murine microsomal EH; conditions: at 2 mM; cited from earlier work
soluble EH = conditions: at 8 uM; cited from earlier work
human sEH [5] = target: T1, human sEH; assay: Heat lability of expressed human sEH; type: biochemical; conditions: enzyme assay mixture preincubated 15 min at 65° C.
[6] = AchsEH1 infected Sf21 lysate, inhibitor 62.5 μM, ND = no activity detected where 0.65 was distinguishable above background

- inhibition at 62.5 µM (human sEH [1]): 73%
Molecule: O=[N+]([O-])c1ccc([C@@H]2O[C@H]2CO)cc1 [SSNPG, (2S,3S)-3-(4-nitrophenyl) glycidol]
- specific activity remaining with inhibitor, substrate TSO (human sEH [1]; [6]): 5.73 (0.56) nmoles TSO or CSO converted to
- IC50 [2]: 1 to 10 µM

- Epoxide hydrolase activity (±S.D.) remaining with inhibitor (murine sEH; Experiment 1): 76 ± 20 pmol·min/mg
- Epoxide hydrolase activity (±S.D.) remaining with inhibitor (murine sEH; Experiment 2): 109 ± 4 pmol·min/mg
- Epoxide hydrolase activity (±S.D.) remaining with inhibitor (murine sEH; Experiment 3): 134 ± 6 pmol·min/mg
Molecule: O=[N+]([O-])c1ccc([C@@H]2O[C@H]2CO)cc1 [t-ENPG, trans2(S),3(S)-epoxy-3-(4-nitrophenyl) glycidol]
- Epoxide hydrolase activity (±S.D.) remaining with inhibitor ([3]; Experiment 1, mock transfected COS-7 cells + t-ENPG 1 mM): 74 ± 6 pmol·min/mg
- Epoxide hydrolase activity (±S.D.) remaining with inhibitor ([3]; Experiment 1, pJ3omega vector control transfected COS-7 cells + t-ENPG 1 mM): 69 ± 6 pmol·min/mg
- Epoxide hydrolase activity (±S.D.) remaining with inhibitor ([3]; Experiment 2, mock transfected COS-7 cells + t-ENPG 1 mM): 106 ± 5 pmol·min/mg
- Epoxide hydrolase activity (±S.D.) remaining with inhibitor ([3]; Experiment 2, pJ3omega vector control transfected COS-7 cells + t-ENPG 1 mM): 97 ± 4 pmol·min/mg
- Epoxide hydrolase activity (±S.D.) remaining with inhibitor ([3]; Experiment 3, mock transfected COS-7 cells + t-ENPG 1 mM): 88 ± 2 pmol·min/mg
- Epoxide hydrolase activity (±S.D.) remaining with inhibitor ([3]; Experiment 3, pJ3omega vector control transfected COS-7 cells + t-ENPG 1 mM): 113 ± 8 pmol·min/mg
- inhibition of microsomal EH [4]: ≤ 23%
- inhibition of soluble EH (soluble EH): ≥ 50%

- inhibition of activity by heat (heat lability) (human sEH [5]): 100%
B1: expressed human sEH: recombinant human soluble epoxide hydrolase (Seq ID No.2) expressed in Sf21 cells (protein)
chain: MTLRGAVFDLDGVLALPAVFGVLGRTEEALALPRGLLNDAFQKGGPEGATTRLMKGEITLSQWIPLMEENCRKCSETAKVCLPKNFSIKEIFDKAISARKINRPMLQAALMLRKKGFTTAILTNTWLDDRAERDGLAQLMCELKMHFDFLIESCQVGMVKPEPQIYKFLLDTLKASPSEVVFLDDIGANLKPARDLGMVTILVQDTDTALKELEKVTGIQLLNTPAPLPTSCNPSDMSHGYVTVKPRVRLHFVELGWPAVCLCHGFPESWYSWRYQIPALAQAGYRVLAMDMKGYGESSAPPEIEEYCMEVLCKEMVTFLDKLGLSQAVFIGHDWGGMLVWYMALFYPERVRAVASLNTPFIPANPNMSPLESIKANPVFDYQLYFQEPGVAEAELEQNLSRTFKSLFRASDESVLSMHKVCEAGGLFVNSPEEPSLSRMVTEEEIQFYVQQFKKSGFRGPLNWYRNMERNWKWACKSLGRKILIPALMVTAEKDFVLVPQMSQHMEDWIPHLKRGHIEDCGHWTQMDKPTEVNQILIKWLDSDARNPPVVSKM

Second part, the molecule before the results:

Molecule: O=C(c1ccccc1)C1OC1c1ccc(F)cc1 (centres unmarked) [4FCO, 4-fluorochalcone oxide]
- inhibition at 62.5 µM (human sEH [1]): 100%
- selectivity for sEH (sEH): very selective inhibitor of sEH

Molecule: O=[N+]([O-])c1ccc([C@H]2O[C@@H]2CO)cc1 [RRNPG, (2R,3R)-3-(4-nitrophenyl) glycidol]
- specific activity remaining with inhibitor, substrate CSO (human sEH [1]; [6]): 19.8 (1.26) nmoles TSO or CSO converted to
- inhibition at 62.5 µM (human sEH [1]): 39%
- IC50 [2]: > 690 µM

— patent US5445956A, “Recombinant soluble epoxide hydrolase” (The Regents of the University of California, priority 1993, dated 1995)
